Here are results for one compound from article PMC8981238, “C-type cytochrome-initiated reduction of bacterial lytic polysaccharide monooxygenases” (Biochemical Journal, 2021).

Each structure is given as a SMILES string.

The experiment concerns the target T1, CfAA10 (Cellulomonas fimi, UniProt F4H6A3).
T1 construct: gene Celf_0270; apparently with its C-terminal CBM (truncation told only for the C. japonicus enzyme)
The experiment can be described thus: Amplex Red / horseradish peroxidase coupled H2O2 production, initial rates. It is filed as biochemical. The following applies: reductant varied, no polysaccharide, O2 from air, 50 mM sodium phosphate pH 6.0, room temperature, 2 µM LPMO.

T1 sequence (F4H6A3 entry or part of it): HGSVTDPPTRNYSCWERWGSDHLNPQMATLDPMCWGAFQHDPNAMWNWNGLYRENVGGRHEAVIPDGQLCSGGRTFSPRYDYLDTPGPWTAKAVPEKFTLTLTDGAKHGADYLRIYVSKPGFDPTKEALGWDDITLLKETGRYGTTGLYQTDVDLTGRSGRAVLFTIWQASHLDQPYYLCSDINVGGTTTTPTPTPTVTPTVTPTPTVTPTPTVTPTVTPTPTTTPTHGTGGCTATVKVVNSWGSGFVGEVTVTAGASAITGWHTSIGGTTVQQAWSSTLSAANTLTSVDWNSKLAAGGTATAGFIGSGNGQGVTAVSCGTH

`O=C1O[C@H]([C@@H](O)CO)C(O)=C1O` [ascorbate]: the KM result is on record as “KM is consistently lower when CjX183 is used as the reductant compared with ascorbate”.
